Counter-ions that a name gives are not always drawn. Like-named read-outs stand apart in the source and are kept apart here.

Data set [1] can be described thus: in vitro. The conditions noted are these: human.
Data set [2] can be described thus: Validation screen: cytotoxicity without viral infection. The conditions noted are these: human.
Data set [3] concerns A/PuertoRico/8/1934 (H1N1) virus. In words: microbe, parasite or virus in culture. The data set is classed as cell-based, influenza A virus.
A short description of data set [4]: in vitro. The note with it: human. The source holds these as a separate data set.
The nature of data set [5]: in vitro.
A short description of data set [6]: in vitro. The conditions noted are these: human, Relative Viability (%).
Data set [7] deals with B/Human/Hubei/1/2007 (IBV). The data set can be described thus: microbe, parasite or virus in culture. The data set is classed as cell-based. The conditions noted are these: Influenza B virus, MDCK, 48 h, read-out: IBV IC50.
The nature of data set [8]: in vitro. The note with it: dog.
Data set [9] has as its system A/PuertoRico/8/1934 (H1N1) virus. The data set can be described thus: microbe, parasite or virus in culture. It counts as cell-based, influenza A virus. This is another data set of the same source.
In data set [10] the test system is A/Human/Hubei/3/2005 (H3N2). In words: microbe, parasite or virus in culture. The data set is classed as cell-based. The note with it: Influenza A virus, H3N2, A549, 48 h, read-out: H3N2 IC50.
For a further data set, the system named is striatal neurons. On the set-up: method as in Iwatsubo et al., 2007. The conditions noted are these: young and neonatal neurons; ref Iwatsubo et al., 2007; cited from earlier work.
Data set [11] in a line: in vitro. The conditions noted are these: human. The source holds these as a separate data set.
Another data set has as its system primary tumor. Further details: method as in Sakakitani et al., 2020. The note with it: xenograft model; ref Sakakitani et al., 2020; cited from earlier work.
In a further data set the test system is oral cancer cells. On the set-up: method as in Sakakitani et al., 2020. The note with it: ref Sakakitani et al., 2020; cited from earlier work.
Data set [12] relates to Bovine Liver Catalase (BLC). Further details: method as in Shahraki et al., 2020. The conditions noted are these: ref Shahraki et al., 2020; cited from earlier work.
The subject of data set [13] is single-stranded RNA (ssRNA) viruses. The note with it: cited from earlier work.
The test system of data set [14] is U937 cells. The conditions noted are these: 20 µM.
The subject of data set [15] is U937 cells.
Setting [16] is: Influenza A virus, H1N1, U-937, 48 h; read-out: NA Inhibition (%).
The mark [17] stands for this setting: Influenza A virus, H1N1, U-937, 48 h.
Where [18] appears, read: Influenza A virus, H1N1, U-937, 48 h, read-out: NA Inhibition (%).

Broadly, the inhibition is the change of the read-out against control, counted positive when it falls. One may read the viability as a read-out of living cells in per cent, often relative to untreated cells. The term IC50 denotes the midpoint of a concentration-inhibition curve. As for `O=C(c1ccc(OCCCc2cnc[nH]2)cc1)C1CC1` [Ciproxifan], the CC50 in the data set “in vitro [1]” was found to be 425 µM; in “in vitro [5]” (human, A549 cells) it was 556 µM. For the same molecule, the CC50 at 48 h in data set [2] was > 80 µM; in “in vitro [4]” it was 556 µM; in “in vitro [8]”, > 400 µM. Further, the inhibition at 20 µM in [3] (setting [16]) amounted to 75.2%. The viability at 20 µM in “in vitro [6]” stood at 131%. In addition, the IC50 in data set [7] came to 1.8 µM; in data set [9] (setting [17]), 1.4 µM; in data set [10], 14.9 µM.
As for `CN(C)[C@@H](CCOc1cccc2ccccc12)c1ccccc1` [Dapoxetine HCl], in data set [2] (uninfected U937 cells), the CC50 at 48 h was determined as 76.1 µM. For the same molecule, in data set [3] (setting [16]), the inhibition at 20 µM worked out at 63.4%. Besides, in “in vitro [6]”, the viability at 20 µM was 110%. In data set [9] (setting [17]), this molecule showed an IC50 of 6.65 µM.
On to `NCCc1ccc(O)c(O)c1` [Dopamine HCl], for which the inhibition at 20 µM in data set [3] (setting [18]) is -7.6%. The apoptosis result with striatal neurons is on record as “can induce apoptosis in young striatal neurons through D1-like receptors, but not in neonatal neurons”.
In the case of `Cc1ccc(OCC(O)C(C)NC(C)C)c2c1CCC2` (stereo not shown) [ICI-118551], the inhibition at 20 µM in data set [3] (setting [18]) was 60.7%. The CC50 at 48 h in the data set “in vitro [11]” is > 80 µM. The viability at 20 µM in “in vitro [6]” is 106%. In [9] (setting [17]), this molecule yielded an IC50 of 5.8 µM.
As to `CC(C)NCC(O)c1ccc(O)c(O)c1` (stereo not shown) [Isoprenaline HCl], the inhibition at 20 µM in [3] (setting [16]) was -12.4%. In addition, the apoptosis result with striatal neurons is recorded as “did not promote apoptosis in either group”.
Regarding `CC(COc1ccccc1)NC(C)C(O)c1ccc(O)cc1` (stereo not shown) [Isoxsuprine, Isoxsuprine hydrochloride], the CC50 in “in vitro [1]” was > 900 µM; in the data set “in vitro [5]” (human, A549 cells), 530 µM. In addition, the figures for the CC50 at 48 h (in data set [2]; in “in vitro [4]”; in the data set “in vitro [8]”) were > 80 µM, > 900 µM and > 400 µM, respectively. For the same molecule, in data set [3] (setting [18]), the inhibition at 20 µM turned out to be 86.5%. Besides, the primary tumor growth entry with primary tumor is listed as “effectively suppressed primary tumor growth”. The “mesenchymal cell markers and motility” value in the data set on oral cancer cells was “downregulates mesenchymal cell markers and reduces motility”. Also, in “in vitro [6]”, the viability at 20 µM amounted to 105%. Also, the IC50 stood at 3.4 µM in data set [7], 1.5 µM in data set [9] (setting [17]) and 34.3 µM in data set [10]. For the same molecule, in [12], the catalase activity result was “reduce catalase activity”.
Take `O=C(C[S+]([O-])Cc1ccco1)NC/C=C\COc1cc(CN2CCCCC2)ccn1` (stereo not shown) [Lafutidine]: in data set [3] (setting [16]), the inhibition at 20 µM was 52%. In the data set “in vitro [11]”, the CC50 at 48 h is > 80 µM. For the same molecule, in “in vitro [6]”, the viability at 20 µM was 109%. Also, the IC50 in data set [9] (setting [17]) is 14.8 µM.
As to `Cc1cccc(C(C)c2cnc[nH]2)c1C` (stereo not shown) [Medetomidine HCl], the CC50 at 48 h in [2] was > 80 µM. Further, the inhibition at 20 µM in data set [3] (setting [18]) worked out at 59.7%. Also, in “in vitro [6]”, the viability at 20 µM was 103%. The molecule also displayed an IC50 in data set [9] (setting [17]) of 12.5 µM.
In data set [2] (uninfected U937 cells), `OC(CNCC(O)C1CCc2cc(F)ccc2O1)C1CCc2cc(F)ccc2O1` (stereo not shown) [Nebivolol] yielded a CC50 at 48 h of 33.3 µM. Besides, the inhibition at 20 µM in [3] (setting [16]) came to 66.4%. Besides, the viability at 20 µM in the data set “in vitro [6]” was found to be 89.4%. This molecule returned an IC50 in data set [9] (setting [17]) of 9.8 µM.
For `CCCN1C[C@H](CSC)C[C@@H]2c3cccc4[nH]cc(c34)C[C@H]21` [Pergolide mesylate], in that order: > 80 µM, 67.8%, 118% and 7.1 µM.
As to `Cc1ccc(N(CC2=NCCN2)c2cccc(O)c2)cc1` [Phentolamine Mesylate], in data set [2] (uninfected U937 cells), the CC50 at 48 h is > 80 µM. Also, in data set [3] (setting [18]), the inhibition at 20 µM was found to be 72.3%. Moreover, in “in vitro [6]”, the viability at 20 µM stood at 117%. In data set [9] (setting [17]), this molecule showed an IC50 of 1 µM.
As to `CN1CCN(CCCN2c3ccccc3Sc3ccc(Cl)cc32)CC1` [Prochlorperazine dimaleate, Prochlorperazine dimaleate salt], the “antiviral properties, virus entry” value in [13] was “exhibits antiviral properties by disrupting clathrin redistribution”. In data set [2] (uninfected U937 cells), the CC50 at 48 h was determined as 38.4 µM. In data set [3] (setting [18]), the inhibition at 20 µM came to 63.9%. In the data set “in vitro [6]”, the viability at 20 µM is 93.5%.
Turning to `CCCN(CCc1cccs1)[C@H]1CCc2c(O)cccc2C1` [Rotigotine], the inhibition at 20 µM in [3] (setting [16]) was 89.1%. This molecule also registered a CC50 in the data set “in vitro [5]” (human) of 372 µM. Besides, the viability at 20 µM in the data set “in vitro [6]” worked out at 147%. Besides, the IC50 in data set [7] was 7.3 µM; in data set [9] (setting [17]), 1.26 µM; in [10], 21.9 µM. This molecule came in with a CC50 at 48 h in the data set “in vitro [8]” of 93 µM.
For `OCc1cc(C(O)CNCCCCCCOCCCCc2ccccc2)ccc1O` (stereo not shown) [Salmeterol Xinafoate], the CC50 at 48 h in data set [2] (uninfected U937 cells) was 40.2 µM. Besides, the inhibition at 20 µM in [3] (setting [18]) is 69.9%. In the data set “in vitro [6]”, the viability at 20 µM amounted to 90.4%. For the same molecule, in data set [9] (setting [17]), half-maximal inhibition (IC50) was put at 4.4 µM.
In “in vitro [5]”, `C=C(CC)C(=O)c1ccc(OCC(=O)O)c(Cl)c1Cl` [ethacrynic acid, Ethacrynic acid] returned a CC50 of 240 µM.
Take `COc1cc([C@@H]2c3cc4c(cc3[C@@H](O[C@@H]3O[C@@H]5CO[C@@H](C)O[C@H]5[C@H](O)[C@H]3O)[C@H]3COC(=O)[C@H]23)OCO4)cc(OC)c1O` [etoposide]: the CC50 in the data set “in vitro [5]” came to 260 µM.
For Meclizine 2HCl, in data set [3] (20 µM), the “NA Inhibition (%)” value was 74.9%. The “Relative Viability (%)” value with U937 cells [14] stood at 109.3%. Also, the IC50 in data set [9] (read-out: IC50) came to 5.3 µM. In the data set with U937 cells [15], this molecule registered a CC50 of 79.5 µM.
Take Promethazine HCl: in data set [3] (20 µM), the “NA Inhibition (%)” value turned out to be 64.8%. For the same molecule, the “Relative Viability (%)” value in the data set on U937 cells [14] was 105.7%. Also, the IC50 in data set [9] (read-out: IC50) amounted to 9.3 µM. Besides, in the data set on U937 cells [15], the CC50 is > 80 µM.
Turning to Propranolol HCl, in data set [3] (20 µM), the “NA Inhibition (%)” value is on record as 65.3%. The CC50 with U937 cells [15] was > 80 µM.

The values above are taken from PMC12069340 (Frontiers in Cellular and Infection Microbiology, 2025).
